Read-outs that look alike come from different tables or passages of the source. No end group written: not given here.
How the values were obtained:
Kv1.3 = conditions: read-out: IC50 as Kv1.3 inhibitor; cited from earlier work
Text: Here, the Kv1.3 channel-sensitive hBD2 was used as the molecular template to search potential mouse β-defensin from the biological databases. […] Besides the sequence similarity, the distribution of six cysteine amino acid residues was also identical. In order to better understand the structural feature of mBD3, its structure was modeled by the tem ...

Kv1.6-M428A channel = test: Patch clamp, mouse Kv1.6 pore region mutant M428A; type: cell-based; conditions: 1 μM rmBD3; HEK293 cells; mean ± SE, at least three times; SEM
Text: (§1) The pRc/CMV-hKv1.3 vector was kindly provided by Prof. Stephan Grissmer (University of Ulm, Ulm, Germany) and Prof. Olaf Pongs (Zentrum für Molekulare Neurobiologie der University Hamburg, Hamburg, Germany). The cDNAs encoding human Kv1.1, Kv1.2, hERG and KCNQ1/KCNE1 channels were subcloned into the vector pIRES2-EGFP (TaKaRa Clontech, Mountain View, CA, USA) for coexpression with the green fluorescent protein (GFP), and the other channels were subcloned into vector pcDNA 3.1(+) (TaKaRa Clontech, Mountain View, CA, USA) for coexpression with GFP. The constructs were verified by DNA sequencing (Sangon Biotech, Shanghai, China). The mutants Asp400, Asp401, Val402, Asp403, Asp411, Met428 and Tyr429 on the pore region of wild type mouse Kv1.6 channel plasmids were mutated into Ala with QuikChange Site-Directed Mutagenesis Kit (Agilent Stratagene, Santa Clara, CA, USA). All the mutants were verified by DNA sequencing before being used (Sangon Biotech, China).
(§2) Human embryonic kidney 293 (HEK293) cells were cultured Dulbecco’s modified Eagle medium (Thermo Fisher Scientific, Pittsburgh, PA. USA) with 10% heat-inactivated fetal calf serum supplemented with penicillin (100 units/mL) and streptomycin (100 μg/mL) in a humidified 5% CO2 incubator at 37 °C. […] Potassium currents were recorded after transfection for 1 to 3 days and positive cells were selected based on the presence of GFP fluorescence. […]

mouse Kv1.6 channel = test: Whole-cell patch clamp, mouse Kv1.6 channel in HEK293 cells; type: cell-based; conditions: mean ± SE, SEM; for inhibition of mouse Kv1.6 channel currents: at least three times
Protocol: (§3) Human embryonic kidney 293 (HEK293) cells were cultured Dulbecco’s modified Eagle medium (Thermo Fisher Scientific, Pittsburgh, PA. USA) with 10% heat-inactivated fetal calf serum supplemented with penicillin (100 units/mL) and streptomycin (100 μg/mL) in a humidified 5% CO2 incubator at 37 °C. Plasmids were transfected into HEK293 cells using the TurboFect in vitro Transfection Reagent (Thermo Fisher Scientific, Pittsburgh, PA, USA). Potassium currents were recorded after transfection for 1 to 3 days and positive cells were selected based on the presence of GFP fluorescence.
(§4) Electrophysiological experiments were carried out at room temperature using the whole-cell recording mode by EPC10 patch clamp amplifier (Heka Elektronik, Lambrecht, Germany), which was controlled by Patchmaster software version 2 × 65 (Heka Elektronik, Holliston, MA, USA). For all the channels, HEK293 cells were bathed with mammalian Ringer’s solution contained 5 mM KCl, 140 mM NaCl, 10 mM HEPES, 2 mM CaCl2, 1 mM MgCl2 and 10 mM D-glucose (pH adjusted to 7.4 with NaOH). When rmBD3 was applied, 0.01% BSA was added to the Ringer’s solution. A multichannel microperfusion system MPS-2 (INBIO Inc., Wuhan, China) was used to exchange the external recording bath solution. The internal pipette solution contains 140 mM KCl, 1 mM MgCl2, 1 mM EGTA, 1 mM Na2ATP and 5 mM HEPES (pH adjusted to 7.4 with NaOH). All channel currents were elicited by depolarizing voltage steps of 200 ms from the holding potential −80 mV to +50 mV. Currents were typically digitized at 20 kHz and filtered at 2.9 kHz (Bessel). Electrode resistances were 3.0–5.0 MΩ, and the series resistance was usually compensated by 85%. The currents through Kv channels and KCNQ1/KCNE1 channel were recorded according to previously published references.
(§5) The IC50 values were obtained by fitting a modified Hill equation to the data with the formula: IrmBD3/Icontrol = 1/(1 + [rmBD3]/IC50), where [rmBD3] is the concentration of rmBD3, IrmBD3 and Icontrol are the peak currents in the presence and absence of rmBD3 at four different concentrations. The conductance of mouse Kv1.6 channel was calculated by the formula: G = Ipeak/(V − EKv1.6), where Ipeak is the peak current, EKv1.6 is the reversal potential of the Kv1.6 channel. The conductance-voltage (G-V) curves were generated by the measured peak currents and fitted with a V50-V equation using the formula: G/Gmax = 1/(1 + exp [(V − V50)/k]), where G is the conductance of the channels, Gmax is the maximal channel conductance, V is the membrane voltage, V50 is the voltage of half-maximal activation, and k is the slope factor. The data were presented as the means ± SE of at least three times repeated experiments. Sigmaplot 12.5 and GraphPad Prism 5 software were used for analysis.

mouse Kv1.3 channel = test: Whole-cell patch clamp, mouse Kv1.3 channel in HEK293 cells; type: cell-based; conditions: 1 μM rmBD3, mean ± SE, at least three times, SEM
Protocol: as §3
(§6) Electrophysiological experiments were carried out at room temperature using the whole-cell recording mode by EPC10 patch clamp amplifier (Heka Elektronik, Lambrecht, Germany), which was controlled by Patchmaster software version 2 × 65 (Heka Elektronik, Holliston, MA, USA). For all the channels, HEK293 cells were bathed with mammalian Ringer’s solution contained 5 mM KCl, 140 mM NaCl, 10 mM HEPES, 2 mM CaCl2, 1 mM MgCl2 and 10 mM D-glucose (pH adjusted to 7.4 with NaOH). When rmBD3 was applied, 0.01% BSA was added to the Ringer’s solution. A multichannel microperfusion system MPS-2 (INBIO Inc., Wuhan, China) was used to exchange the external recording bath solution. […] The currents through Kv channels and KCNQ1/KCNE1 channel were recorded according to previously published references. […]

mouse Kv1.2 channel = test: Whole-cell patch clamp, mouse Kv1.2 channel in HEK293 cells; type: cell-based; conditions: 1 μM rmBD3, mean ± SE, at least three times, SEM
Protocol: as §3, §6

Kv1.6-V402A channel = test: Patch clamp, mouse Kv1.6 pore region mutant V402A; type: cell-based; conditions: 1 μM rmBD3; HEK293 cells; mean ± SE, at least three times; SEM
Text: as §1, §2

Kv1.6-D411A channel = test: Patch clamp, mouse Kv1.6 pore region mutant D411A; type: cell-based; conditions: 1 μM rmBD3; HEK293 cells; mean ± SE, at least three times; SEM
Text: as §1, §2

[1] = tested on: human KCNQ1/KCNE1 channel; type: cell-based; conditions: HEK293 cells, mean ± SE, SEM; for inhibition of human KCNQ1/KCNE1 channel currents: at least three times
Text: as §1, §3
as §4, with “Electrode resistances were 3.0–5.0 MΩ, and the series resistance was usually compensated by 85%.” left out
as §5, with “The data were presented as the means ± SE of at least three times repeated experiments. Sigmaplot 12.5 and GraphPad Prism 5 software were used for analysis.” left out

human Kv1.2 channel = test: Whole-cell patch clamp, human Kv1.2 channel in HEK293 cells; type: cell-based; conditions: 1 μM rmBD3, mean ± SE, at least three times, SEM
Text: as §1, §2

human Kv1.6 channel = test: Whole-cell patch clamp, human Kv1.6 channel in HEK293 cells; type: cell-based; conditions: 1 μM rmBD3, mean ± SE, at least three times, SEM
Protocol: as §3, §6

human Kv3.2 channel = test: Whole-cell patch clamp, human Kv3.2 channel in HEK293 cells; type: cell-based; conditions: 1 μM rmBD3, mean ± SE, at least three times, SEM
Protocol: as §3, §6

hERG channel = type: cell-based, human; conditions: 1 μM rmBD3; HEK293 cells; mean ± SE, at least three times; SEM
Text: as §1, §2

Kv1.6-D400A channel = test: Patch clamp, mouse Kv1.6 pore region mutant D400A; type: cell-based; conditions: 1 μM rmBD3; HEK293 cells; mean ± SE, at least three times; SEM
Text: as §1, §2

Kv1.6-Y429A channel = test: Patch clamp, mouse Kv1.6 pore region mutant Y429A; type: cell-based; conditions: 1 μM rmBD3; HEK293 cells; mean ± SE, at least three times; SEM
Text: as §1, §2

human Kv1.1 channel = test: Whole-cell patch clamp, human Kv1.1 channel in HEK293 cells; type: cell-based; conditions: 1 μM rmBD3, mean ± SE, at least three times, SEM
Text: as §1, §2

Kv1.6-D403A channel = test: Patch clamp, mouse Kv1.6 pore region mutant D403A; type: cell-based; conditions: 1 μM rmBD3; HEK293 cells; mean ± SE, at least three times; SEM
Text: as §1, §2

mouse Kv1.1 channel = test: Whole-cell patch clamp, mouse Kv1.1 channel in HEK293 cells; type: cell-based; conditions: 1 μM rmBD3, mean ± SE, at least three times, SEM
Protocol: as §3, §6

human Kv1.3 channel = test: Whole-cell patch clamp, human Kv1.3 channel in HEK293 cells; type: cell-based; conditions: 1 μM rmBD3, mean ± SE, at least three times, SEM
Text: as §1, §2

Kv1.6-D401A channel = test: Patch clamp, mouse Kv1.6 pore region mutant D401A; type: cell-based; conditions: 1 μM rmBD3; HEK293 cells; mean ± SE, at least three times; SEM
Text: as §1, §2

human KCNQ1 channel = type: cell-based; conditions: 1 μM rmBD3; HEK293 cells; mean ± SE, at least three times; SEM
Protocol: as §3, §6

Substance: hBD1: human β-defensin, Kv1.3 channel blocker binding the pore region (DHYNCVSSGGQCLYSACPIFTKIQGTCYRGKAKCCK; ends and bridges not checked; cysteine pairing not given here; UniProt P60022 33-68, looked up)
- IC50 (Kv1.3): 11800 nM

Substance: human β-defensin 2 [hBD2]
- IC50 (Kv1.3): 0.022 nM

Substance: mouse β-defensin 3 (KKINNPVSCLRKGGRCWNRCIGNTRQIGSCGVPFLKCCKRK; ends and bridges not checked; cysteine pairing not given here; UniProt Q9WTL0 23-63, looked up) [rmBD3, Recombinant mouse β-defensin 3 expressed in E. coli, cleaved from His-tag fusion by Enterokinase, HPLC purified]
- inhibition of mutant Kv1.6-M428A channel (Kv1.6-M428A channel): 39.3 ± 1.8%
- inhibition of mouse Kv1.6 channel currents (mouse Kv1.6 channel; 1 nM rmBD3, HEK293 cells): 18.1 ± 2.4%
- inhibition of mouse Kv1.6 channel currents (mouse Kv1.6 channel; 10 nM rmBD3, HEK293 cells): 26.4 ± 1.8%
- inhibition of mouse Kv1.6 channel currents (mouse Kv1.6 channel; 1 μM rmBD3, HEK293 cells, whole-cell patch clamp): 56.1 ± 4.2%
- inhibition of mouse Kv1.6 channel currents (mouse Kv1.6 channel; 10 μM rmBD3, HEK293 cells): 73.1 ± 2.2%
- IC50 (mouse Kv1.6 channel; Hill equation fitting, four concentrations, HEK293 cells, read-out: IC50, mouse Kv1.6 channel currents): 600 ± 400 nM
- k (slope factor) of activation G-V curve of Kv1.6 channel in the presence of rmBD3 (mouse Kv1.6 channel; after treatment with 1 μM rmBD3 (control 6.8 ± 0.6), Boltzmann fitting): 6.5 ± 0.4
- V50 of activation G-V curve of Kv1.6 channel in the presence of rmBD3 (mouse Kv1.6 channel; after treatment with 1 μM rmBD3 (control −23.8 ± 0.7 mV), Boltzmann fitting): −18.8 ± 0.5 mV
- inhibition of mouse Kv1.3 potassium currents (mouse Kv1.3 channel): 14.0 ± 3.7%
- inhibition of mouse Kv1.2 potassium currents (mouse Kv1.2 channel): 4.9 ± 0.6%
- inhibition of mutant Kv1.6-V402A channel (Kv1.6-V402A channel): 21.8 ± 4.5%
- inhibition of mutant Kv1.6-D411A channel (Kv1.6-D411A channel): 43.2 ± 3.5%
- inhibition of human KCNQ1/KCNE1 channel currents ([1]; 10 nM rmBD3): 21.8 ± 3.6%
- inhibition of human KCNQ1/KCNE1 channel currents ([1]; 100 nM rmBD3): 32.4 ± 1.8%
- inhibition of human KCNQ1/KCNE1 channel currents ([1]; 1 μM rmBD3): 46.3 ± 4.2%
- inhibition of human KCNQ1/KCNE1 channel currents ([1]; 10 μM rmBD3): 68.8 ± 3.8%
- IC50 ([1]; Hill equation fitting, four concentrations, read-out: IC50, human KCNQ1/KCNE1 channel currents): 1200 ± 800 nM
- inhibition of human Kv1.2 potassium currents (human Kv1.2 channel): 9.3 ± 0.8%
- inhibition of human Kv1.6 potassium currents (human Kv1.6 channel): 31.2 ± 3.6%
- inhibition of human Kv3.2 potassium currents (human Kv3.2 channel): 11.6 ± 1.3%
- inhibition of hERG potassium currents (hERG channel): 14.7 ± 3.9%
- inhibition of mutant Kv1.6-D400A channel (Kv1.6-D400A channel): 54.9 ± 1.9%
- inhibition of mutant Kv1.6-Y429A channel (Kv1.6-Y429A channel): 36.7 ± 2.0%
- inhibition of human Kv1.1 potassium currents (human Kv1.1 channel): 8.8 ± 3.0%
- inhibition of mutant Kv1.6-D403A channel (Kv1.6-D403A channel): 35.6 ± 1.0%
- inhibition of mouse Kv1.1 potassium currents (mouse Kv1.1 channel): 19.0 ± 2.2%
- inhibition of human Kv1.3 potassium currents (human Kv1.3 channel): 14.6 ± 0.9%
- inhibition of mutant Kv1.6-D401A channel (Kv1.6-D401A channel): 20.7 ± 4.5%
- inhibition of human KCNQ1 channel currents (human KCNQ1 channel): 26.1 ± 4.8%
